The values below come from patent US9120770B2, “Substituted pyridine and pyrazine compounds as PDE4 inhibitors” (DART NEUROSCIENCE (CAYMAN) LTD., priority 2013, dated 2015).

The term EC50 denotes the midpoint of the concentration-response curve. A lower EC50 goes with an effect from little substance.

The assay addresses PDE4D3 (Homo sapiens, UniProt Q08499).

PDE4D3, sequence (Q08499 1-673 isoform Q08499-2): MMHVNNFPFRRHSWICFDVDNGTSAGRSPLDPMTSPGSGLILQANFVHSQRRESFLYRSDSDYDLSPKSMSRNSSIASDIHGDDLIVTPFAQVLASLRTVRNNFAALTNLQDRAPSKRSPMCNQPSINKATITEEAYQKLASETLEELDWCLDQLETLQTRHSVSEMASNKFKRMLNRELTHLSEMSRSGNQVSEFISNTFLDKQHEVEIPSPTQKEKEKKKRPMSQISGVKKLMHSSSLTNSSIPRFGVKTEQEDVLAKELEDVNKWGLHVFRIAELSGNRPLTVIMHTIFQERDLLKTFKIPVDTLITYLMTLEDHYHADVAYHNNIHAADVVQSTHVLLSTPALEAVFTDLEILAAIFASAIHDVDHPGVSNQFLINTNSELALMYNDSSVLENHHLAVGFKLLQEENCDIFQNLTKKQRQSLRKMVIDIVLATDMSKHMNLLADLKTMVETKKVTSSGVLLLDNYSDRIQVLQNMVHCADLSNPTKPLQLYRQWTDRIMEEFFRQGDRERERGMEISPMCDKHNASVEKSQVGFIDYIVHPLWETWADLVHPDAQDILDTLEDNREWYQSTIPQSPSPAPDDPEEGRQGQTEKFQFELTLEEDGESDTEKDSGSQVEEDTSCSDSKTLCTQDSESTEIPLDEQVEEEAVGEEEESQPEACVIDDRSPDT

Regarding `COc1ncc(Cn2cncn2)cc1-c1cccc(OC(F)(F)F)c1` [Example 137, 2-Methoxy-5-(1H-1,2,4-triazol-1-ylmethyl)-3-[3-(trifluoromethoxy)phenyl]pyridine], the EC50 was 0.1 to 1 µM. As to `FC(F)Oc1ncc(Cn2cncn2)cc1-c1cccc(Cl)c1` [Example 131, 3-(3-Chlorophenyl)-2-(difluoromethoxy)-5-(1H-1,2,4-triazol-1-ylmethyl)pyridine], the 50% effective concentration (EC50) was less than 0.1 µM.

`COc1ncc(Cc2cnc(NC3CC3)nc2)cc1-c1cccc(Cl)c1` [Example 82, 5-{[5-(3-Chlorophenyl)-6-methoxypyridin-3-yl]methyl}-N-cyclopropylpyrimidin-2-amine] had an EC50 of less than 0.1 µM.

The compound `COc1ncc(Cn2cc(Cl)cn2)cc1-c1cccc(Cl)c1` [Example 178, 5-[(4-Chloro-1H-pyrazol-1-yl)methyl]-3-(3-chlorophenyl)-2-methoxypyridine] gave an EC50 of 0.1 to 1 µM. The result for `COc1ncn(Cc2cnc(OC(F)F)c(-c3cccc(Cl)c3)c2)n1` [Example 214, 3-(3-Chlorophenyl)-2-(difluoromethoxy)-5-[(3-methoxy-1H-1,2,4-triazol-1-yl)methyl]pyridine] reads 0.1 to 1 µM; that for `CCOc1ncc(Cc2cnc(C#N)nc2)nc1-c1cccc(Cl)c1` [Example 108, 5-{[6-(3-Chlorophenyl)-5-ethoxypyrazin-2-yl]methyl}pyrimidine-2-carbonitrile], 0.1 to 1 µM. The result for `COc1ncc(Cc2ccc(C(N)=O)cc2)nc1-c1cccc(Cl)c1` [Example 113, 4-{[6-(3-Chlorophenyl)-5-methoxypyrazin-2-yl]methyl}benzamide] reads 0.1 to 1 µM; that for `COc1ncc(Cn2cc(N)cn2)nc1-c1cccc(Cl)c1` [Example 236, 1-{[6-(3-Chlorophenyl)-5-methoxypyrazin-2-yl]methyl}-1H-pyrazol-4-amine], greater than 10 µM; that for `COc1ncc(Cn2cnc(C)n2)nc1-c1cccc(Cl)c1` [Example 132, 3-(3-Chlorophenyl)-2-methoxy-5-[(3-methyl-1H-1,2,4-triazol-1-yl)methyl]pyrazine], 0.1 to 1 µM.

`CC(C)Oc1ncc(Cn2cncn2)cc1-c1cccc(Cl)c1` [Example 135, 3-(3-Chlorophenyl)-2-(propan-2-yloxy)-5-(1H-1,2,4-triazol-1-ylmethyl)pyridine] displayed an EC50 of 1 to 10 µM. The result for `COc1ncc(Cn2cncn2)cc1-c1cccc(C#N)c1` [Example 136, 3-[2-Methoxy-5-(1H-1,2,4-triazol-1-ylmethyl)pyridin-3-yl]benzonitrile] reads 0.1 to 1 µM; that for `CCOc1cccc(-c2cc(Cn3cnc(N)n3)cnc2OC)c1` [Example 224, 1-{[5-(3-Ethoxyphenyl)-6-methoxypyridin-3-yl]methyl}-1H-1,2,4-triazol-3-amine], 0.1 to 1 µM. The result for `COc1ncc(C(F)c2ccc(F)cc2)cc1-c1cccc(Cl)c1` (stereo not drawn) [Example 20, 3-(3-Chlorophenyl)-5-[fluoro(4-fluorophenyl)methyl]-2-methoxypyridine] reads 0.1 to 1 µM; that for `CCOc1ncc(Cn2cnc(C)n2)nc1-c1cccc(OC(F)F)c1` [Example 185, 3-[3-(Difluoromethoxy)phenyl]-2-ethoxy-5-[(3-methyl-1H-1,2,4-triazol-1-yl)methyl]pyrazine], less than 0.1 µM; that for `COc1ncc(Cc2ccc(C(N)=O)cc2)cc1-c1cccc(Cl)c1` [Example 27, 4-{[5-(3-Chlorophenyl)-6-methoxypyridin-3-yl]methyl}benzamide], less than 0.1 µM. Then `CC(C)Oc1ccc(Cc2cnc(OC(F)F)c(-c3cccc(Cl)c3)c2)cn1` [Example 50, 3-(3-Chlorophenyl)-2-(difluoromethoxy)-5-{[6-(propan-2-yloxy)pyridin-3-yl]methyl}pyridine], with 1 to 10 µM. `CCOc1ncc(Cn2ncnc2C(=O)OC)nc1-c1cccc(OC(F)F)c1` [Example 192, Methyl 1-((6-(3-(difluoromethoxy)phenyl)-5-ethoxypyrazin-2-yl)methyl)-1H-1,2,4-triazole-5-carboxylate] came in with an EC50 of 1 to 10 µM. The result for `CCOc1ncc(Cc2cnc(C(N)=O)nc2)nc1-c1cccc(Cl)c1` [Example 126, 5-{[6-(3-Chlorophenyl)-5-ethoxypyrazin-2-yl]methyl}pyrimidine-2-carboxamide] reads less than 0.1 µM; that for `N#Cc1ncn(Cc2cnc(OC(F)F)c(-c3cccc(Cl)c3)c2)n1` [Example 156, 1-{[5-(3-Chlorophenyl)-6-(difluoromethoxy)pyridin-3-yl]methyl}-1H-1,2,4-triazole-3-carbonitrile], 1 to 10 µM. Then `CNc1ncc(Cc2cnc(OC(F)F)c(-c3cccc(Cl)c3)c2)cn1` [Example 93, 5-{[5-(3-Chlorophenyl)-6-(difluoromethoxy)pyridin-3-yl]methyl}-N-methylpyrimidin-2-amine], with less than 0.1 µM; and `COc1ncc(Cn2cnc(C3CC3)n2)nc1-c1cccc(Cl)c1` [Example 133, 3-(3-Chlorophenyl)-5-[(3-cyclopropyl-1H-1,2,4-triazol-1-yl)methyl]-2-methoxypyrazine], with 1 to 10 µM. `COc1ncc(Cc2cncs2)cc1-c1cccc(Cl)c1` [Example 65, 3-(3-Chlorophenyl)-2-methoxy-5-(1,3-thiazol-5-ylmethyl)pyridine] registered a half-maximal effective concentration (EC50) of less than 0.1 µM. On to `COc1ncc(Cc2cccnc2)cc1-c1cccc(Cl)c1` [Example 64, 3-(3-Chlorophenyl)-2-methoxy-5-(pyridin-3-ylmethyl)pyridine], for which the EC50 was 0.1 to 1 µM. Then `CCOc1ncc(Cn2ncnc2CO)nc1-c1cccc(OC(F)F)c1` [Example 209, [1-({6-[3-(Difluoromethoxy)phenyl]-5-ethoxypyrazin-2-yl}methyl)-1H-1,2,4-triazol-5-yl]methanol], with 1 to 10 µM; and `COc1ncc(Cc2cnoc2)cc1-c1cccc(Cl)c1` [Example 96, 3-(3-Chlorophenyl)-2-methoxy-5-(1,2-oxazol-4-ylmethyl)pyridine], with 0.1 to 1 µM.

With `Cc1noc(C)c1Cc1cnc(OC(F)F)c(-c2cccc(Cl)c2)c1` [Example 99, 3-(3-Chlorophenyl)-2-(difluoromethoxy)-5-[(dimethyl-1,2-oxazol-4-yl)methyl]pyridine], the half-maximal effective concentration (EC50) fell in the range of 1 to 10 µM. Then `COc1ncc(Cn2cncn2)cc1-c1ccncc1` [Example 171, 2-Methoxy-3-(pyridin-4-yl)-5-(1H-1,2,4-triazol-1-ylmethyl)pyridine], with 0.1 to 1 µM. `CCOc1ncc(Cn2ncnc2[N+](=O)[O-])nc1-c1cccc(OC(F)F)c1` [Example 194, 3-(3-(Difluoromethoxy)phenyl)-2-ethoxy-5-((5-nitro-1H-1,2,4-triazol-1-yl)methyl)pyrazine]: the EC50 is 1 to 10 µM. Take `COc1ncc(Cn2cncn2)cc1-c1cccc(F)c1` [Example 129, 3-(3-Fluorophenyl)-2-methoxy-5-(1H-1,2,4-triazol-1-ylmethyl)pyridine]: the EC50 lay in the range of 0.1 to 1 µM. Compound `COc1ncc(Cn2cnc(C3CC3)n2)cc1-c1cccc(Cl)c1` [Example 147, 3-(3-Chlorophenyl)-5-[(3-Cyclopropyl-1H-1,2,4-triazol-1-yl)methyl]-2-methoxypyridine] showed an EC50 of 0.1 to 1 µM. Then `CCOc1ncc(Cn2cnc(CO)n2)nc1-c1cccc(Cl)c1` [Example 212, (1-{[6-(3-Chlorophenyl)-5-ethoxypyrazin-2-yl]methyl}-1H-1,2,4-triazol-3-yl)methanol], with 0.1 to 1 µM; and `COc1ncc(Cn2cncn2)cc1-c1cc(C)ccn1` [Example 10, 2-Methoxy-3-(4-methylpyridin-2-yl)-5-(1H-1,2,4-triazol-1-ylmethyl)pyridine], with greater than 10 µM; and `COc1ncc(Cc2ccnc(C#N)c2)cc1-c1cccc(Cl)c1` [Example 62, 4-{[5-(3-Chlorophenyl)-6-methoxypyridin-3-yl]methyl}pyridine-2-carbonitrile], with 1 to 10 µM.

Compound `Cc1ncc(Cc2cnc(OC(F)F)c(-c3cccc(Cl)c3)c2)s1` [Example 73, 3-(3-Chlorophenyl)-2-(difluoromethoxy)-5-[(2-methyl-1,3-thiazol-5-yl)methyl]pyridine] returned an EC50 of less than 0.1 µM. The result for `COc1ncc(Cc2cnc(C(C)(C)O)nc2)cc1-c1cccc(OC(F)F)c1` [Example 48, 2-[5-({5-[3-(Difluoromethoxy)phenyl]-6-methoxypyridin-3-yl}methyl)pyrimidin-2-yl]propan-2-ol] reads less than 0.1 µM; that for `O=C(O)c1ccc(Cc2cnc(OC(F)F)c(-c3cccc(Cl)c3)c2)cc1` [Example 280, 4-{[5-(3-Chlorophenyl)-6-(difluoromethoxy)pyridin-3-yl]methyl}benzoic acid], 1 to 10 µM; that for `COc1ncc(Cc2cnc(N)nc2)cc1-c1ccnc(OC(F)F)c1` [Example 47, 5-({5-[2-(Difluoromethoxy)pyridin-4-yl]-6-methoxypyridin-3-yl}methyl)pyrimidin-2-amine], less than 0.1 µM. The result for `COc1ncc(Cn2cc(NC(C)=O)cn2)cc1-c1cccc(Cl)c1` [Example 172, N-(1-{[5-(3-Chlorophenyl)-6-methoxypyridin-3-yl]methyl}-1H-pyrazol-4-yl)acetamide] reads 1 to 10 µM.

For `COc1ncc(Cn2cccn2)nc1-c1cccc(Cl)c1` [Example 182, 3-(3-Chlorophenyl)-2-methoxy-5-(1H-pyrazol-1-ylmethyl)pyrazine], the EC50 lay within 1 to 10 µM. Then `COc1ncc(Cn2cc(Cl)cn2)cc1-c1cccc(OC(F)F)c1` [Example 167, 5-[(4-Chloro-1H-pyrazol-1-yl)methyl]-3-[3-(difluoromethoxy)phenyl]-2-methoxypyridine], with 0.1 to 1 µM; and `CN(C)c1ncn(Cc2cnc(OC(F)F)c(-c3cccc(Cl)c3)c2)n1` [Example 239, 1-{[5-(3-Chlorophenyl)-6-(difluoromethoxy)pyridin-3-yl]methyl}-N,N-dimethyl-1H-1,2,4-triazol-3-amine], with 0.1 to 1 µM; and `COC(=O)c1ncn(Cc2cnc(OC)c(-c3cccc(OC(F)F)c3)n2)n1` [Example 196, Methyl 1-({6-[3-(difluoromethoxy)phenyl]-5-methoxypyrazin-2-yl}methyl)-1H-1,2,4-triazole-3-carboxylate], with 1 to 10 µM.
